Measurements: the NIST ThermoML archive (doi:10.1016/j.jct.2016.10.023)
“And” between values parts separate entries of the source, which are not always exact repeats. Equal entries are not always repeated.

Experiment: xn = mol fraction of the nth substance listed
Details: Constant-volume piezometry

CCCCC [pentane] + CCCO
Details | mass density
473.15 K, 3570 kPa, Gas, x1 = 0.9 | 221.23 kg/m3
473.15 K, 3581 kPa, Fluid (supercritical or subcritical phases), x1 = 0.9 | 202.87 kg/m3
473.15 K, 3589 kPa, Fluid (supercritical or subcritical phases), x1 = 0.9 | 221.23 kg/m3
473.15 K, 3592 kPa, Gas, x1 = 0.8 | 140.64 kg/m3
473.15 K, 3596 kPa, Fluid (supercritical or subcritical phases), x1 = 0.9 | 233.64 kg/m3 and 237.11 kg/m3
473.15 K, 3598 kPa, Fluid (supercritical or subcritical phases), x1 = 0.9 | 241.52 kg/m3
473.15 K, 3600 kPa, Fluid (supercritical or subcritical phases), x1 = 0.9 | 244.84 kg/m3
473.15 K, 3614 kPa, Fluid (supercritical or subcritical phases), x1 = 0.9 | 282.71 kg/m3
473.15 K, 3634 kPa, Fluid (supercritical or subcritical phases), x1 = 0.9 | 302.44 kg/m3
473.15 K, 3679 kPa, Fluid (supercritical or subcritical phases), x1 = 0.9 | 313.12 kg/m3
473.15 K, 3689 kPa, Fluid (supercritical or subcritical phases), x1 = 0.8 | 316.17 kg/m3
473.15 K, 3767 kPa, Liquid, x1 = 0.8 | 311.76 kg/m3
473.15 K, 3769 kPa, Liquid, x1 = 0.8 | 312.18 kg/m3
473.15 K, 3862 kPa, Liquid, x1 = 0.8 | 334.71 kg/m3
473.15 K, 3867 kPa, Fluid (supercritical or subcritical phases), x1 = 0.9 | 334.89 kg/m3
473.15 K, 4019 kPa, Liquid, x1 = 0.8 | 346.27 kg/m3
473.15 K, 4251 kPa, Fluid (supercritical or subcritical phases), x1 = 0.9 | 355.05 kg/m3
473.15 K, 4349 kPa, Liquid, x1 = 0.5 | 442.18 kg/m3
473.15 K, 4439 kPa, Liquid, x1 = 0.8 | 362.89 kg/m3
473.15 K, 5156 kPa, Liquid, x1 = 0.5 | 452.53 kg/m3
473.15 K, 5785 kPa, Liquid, x1 = 0.5 | 459.62 kg/m3
473.15 K, 6747 kPa, Fluid (supercritical or subcritical phases), x1 = 0.9 | 408.4 kg/m3
473.15 K, 6942 kPa, Liquid, x1 = 0.5 | 469.49 kg/m3
473.15 K, 7120 kPa, Liquid, x1 = 0.8 | 419.36 kg/m3
473.15 K, 7219 kPa, Liquid, x1 = 0.2 | 548.71 kg/m3
473.15 K, 13549 kPa, Liquid, x1 = 0.5 | 508.06 kg/m3
473.15 K, 13806 kPa, Liquid, x1 = 0.8 | 468.05 kg/m3
473.15 K, 16233 kPa, Liquid, x1 = 0.5 | 520.92 kg/m3
473.15 K, 16852 kPa, Liquid, x1 = 0.2 | 583.19 kg/m3
473.15 K, 20923 kPa, Liquid, x1 = 0.8 | 497.59 kg/m3
473.15 K, 22686 kPa, Liquid, x1 = 0.2 | 596.85 kg/m3
473.15 K, 24900 kPa, Liquid, x1 = 0.5 | 549.88 kg/m3
473.15 K, 30448 kPa, Liquid, x1 = 0.8 | 522.21 kg/m3
473.15 K, 32094 kPa, Liquid, x1 = 0.2 | 616.32 kg/m3
473.15 K, 38268 kPa, Liquid, x1 = 0.5 | 576.1 kg/m3
474.15 K, 3452 kPa, Liquid, x1 = 0.5 | 418.33 kg/m3
474.15 K, 3457 kPa, Liquid, x1 = 0.5 | 418.33 kg/m3
474.15 K, 3855 kPa, Liquid, x1 = 0.8 | 311.75 kg/m3
474.15 K, 3858 kPa, Liquid, x1 = 0.8 | 312.16 kg/m3
475.15 K, 3641 kPa, Liquid, x1 = 0.5 | 418.31 kg/m3
475.15 K, 3789 kPa, Fluid (supercritical or subcritical phases), x1 = 0.9 | 302.41 kg/m3
475.15 K, 3944 kPa, Liquid, x1 = 0.8 | 312.15 kg/m3
477.15 K, 3017 kPa, Liquid, x1 = 0.2 | 510.96 kg/m3
478.15 K, 3181 kPa, Gas, x1 = 0.5 | 89.1 kg/m3
478.15 K, 3700 kPa, Liquid, x1 = 0.5 | 399.08 kg/m3
478.15 K, 3850 kPa, Fluid (supercritical or subcritical phases), x1 = 0.8 | 214.32 kg/m3
478.15 K, 3857 kPa, Fluid (supercritical or subcritical phases), x1 = 0.8 | 220.1 kg/m3
478.15 K, 3944 kPa, Fluid (supercritical or subcritical phases), x1 = 0.8 | 273.15 kg/m3
480.15 K, 3218 kPa, Gas, x1 = 0.5 | 89.09 kg/m3
480.15 K, 3965 kPa, Fluid (supercritical or subcritical phases), x1 = 0.8 | 220.08 kg/m3
480.15 K, 4198 kPa, Fluid (supercritical or subcritical phases), x1 = 0.9 | 302.34 kg/m3
482.15 K, 3886 kPa, Liquid, x1 = 0.5 | 384.8 kg/m3
483.15 K, 867 kPa, Gas, x1 = 0.5 | 15.55 kg/m3
483.15 K, 1195 kPa, Gas, x1 = 0.8 | 22.57 kg/m3
483.15 K, 1378 kPa, Gas, x1 = 0.2 | 24.98 kg/m3
483.15 K, 1547 kPa, Gas, x1 = 0.5 | 30.04 kg/m3
483.15 K, 1753 kPa, Gas, x1 = 0.8 | 36.76 kg/m3
483.15 K, 2012 kPa, Gas, x1 = 0.5 | 40.56 kg/m3
483.15 K, 2335 kPa, Gas, x1 = 0.5 | 51.19 kg/m3
483.15 K, 2505 kPa, Gas, x1 = 0.8 | 58.52 kg/m3
483.15 K, 2571 kPa, Gas, x1 = 0.2 | 53.11 kg/m3
483.15 K, 2845 kPa, Gas, x1 = 0.5 | 67.65 kg/m3
483.15 K, 2913 kPa, Gas, x1 = 0.8 | 73.93 kg/m3
483.15 K, 2963 kPa, Gas, x1 = 0.5 | 72.74 kg/m3
483.15 K, 3039 kPa, Gas, x1 = 0.9 | 83.54 kg/m3

Liquid
Details | mass density [kg/m3]
473.15 K, x1 = 0.5 | 418.35
474.15 K, x1 = 0.8 | 299.93
475.25 K, x1 = 0.8 | 289.08
475.65 K, x1 = 0.8 | 273.18
475.95 K, x1 = 0.8 | 259.17
476.15 K, x1 = 0.8 | 245.91
476.35 K, x1 = 0.2 | 510.98
476.45 K, x1 = 0.5 | 399.12
482.15 K, x1 = 0.5 | 373.68
